Here are results for 76 sequences from the OligoGym collection.

For this series, the target named is DGAT2. The note with it: ASO.

Where “and” joins values, the source holds several entries; their conditions need not be identical. Equal values may be shown once. After the bases stand the sugars from the 5' end (letter, count) and the backbone: PS all phosphorothioate, else s phosphorothioate and o phosphodiester by linkage. Methylation of C is not given here. e = 2'-O-(2-methoxyethyl) (MOE); d = 2'-deoxy (DNA)

Turning to “AACCAACTCTCAGCTACTCC (sugars e5 d10 e5, PS)”, the target mRNA inhibition was 82% and 71% (HepG2, 2.5 µM); 93% and 97% (HepG2, 10 µM).

For “GGAGCTCAGAGACTCAGCCG (sugars e2 d13 e5, PS)”, for the setting “HepG2, 0.12 µM”, the target mRNA inhibition came to 65%.

Consider “GCAGGACCCCGGAGTAGGCG (sugars e5 d10 e5, PS)”, for which the target mRNA inhibition (HepG2, 0.12 µM) is 58%.

As to “GATAGCATTGCCACTCCCAT (sugars e5 d10 e5, PS)”, the target mRNA inhibition (HepG2, 0.12 µM) came out at 66%. On to “AGTAGGGCACCAGCCCCCAG (sugars e5 d10 e5, PS)”, for which the target mRNA inhibition (HepG2, 0.12 µM) was determined as 0%. “GCAGTCTGCCTGATTCCCTT (sugars e5 d10 e5, PS)”: the target mRNA inhibition runs as follows: (HepG2, 2.5 µM) 60%; (HepG2, 10 µM) 93%.

“TTGCAATGTTGCCATCATAC (sugars e5 d10 e5, PS)”: where the note is “HepG2, 10 µM”, the target mRNA inhibition was 96% and 94%. For “TCTTTGCTTGCCAGGTGAGC (sugars e5 d10 e5, PS)”, the target mRNA inhibition by setting is: (HepG2, 2.5 µM) 67%; (HepG2, 10 µM) 71%.

For the setting “HepG2, 0.12 µM”, “TTGTGTGTCTTCACCAGCTG (sugars e2 d13 e5, PS)” registered a target mRNA inhibition of 71%.

Take “CCTAAAGGTGAAGACTGGCT (sugars e5 d10 e5, PS)”: the target mRNA inhibition (HepG2, 2.5 µM) was 77% and 79%; the target mRNA inhibition (HepG2, 10 µM) was 93% and 94%. Regarding “AGGGTTCATGGATCCCC (sugars e3 d10 e4, PS)”, the target mRNA inhibition reads like this: (HepG2, 2.5 µM) 46%; (HepG2, 10 µM) 76%.

The sequence “AAAAACATGACAGCCAGGGT (sugars e5 d10 e5, PS)” had a target mRNA inhibition (HepG2, 0.12 µM) of 31%. Where the note is “HepG2, 0.12 µM”, “CAGGACCCCGGAGTAGGCGG (sugars e3 d14 e3, PS)” displayed a target mRNA inhibition of 53%. Still for that read-out and setting: under “AAGCCCTTGCGGTTCCGCAG (sugars e5 d10 e5, PS)” stands 67%. On to “CCAAGTAAGCCTCGGTGTCC (sugars e5 d10 e5, PS)”, for which the target mRNA inhibition (HepG2, 0.12 µM) stood at 32%. “CAGCCTGGACAAGTCCTGCC (sugars e5 d10 e5, PS)”: the target mRNA inhibition reads like this: (HepG2, 0.12 µM) 84%; (HepG2, 10 µM) 81% and 90% and 88%; (HepG2, 20 µM) 86%. In the case of “TGCAGCTTGGAGGAGGAGTA (sugars e5 d10 e5, PS)”, for the setting “HepG2, 0.12 µM”, the target mRNA inhibition stood at 36%. In the case of “TCTCATGCTAGGTCCTGTGC (sugars e5 d10 e5, PS)”, the target mRNA inhibition was 89% and 74% (HepG2, 2.5 µM); 90% and 88% (HepG2, 10 µM). In the case of “ATCAGCTATAGAATCAGACA (sugars e5 d10 e5, PS)”, the target mRNA inhibition reads like this: (HepG2, 2.5 µM) 16%; (HepG2, 10 µM) 75%.

“CTGCTTCTTGGGCATCTGCT (sugars e5 d10 e5, PS)”: the target mRNA inhibition reads like this: (HepG2, 2.5 µM) 76% and 73%; (HepG2, 10 µM) 88% and 80%. With “CTGACCTCAGGGTGATCAAG (sugars e5 d10 e5, PS)”, under “HepG2, 0.12 µM”, the target mRNA inhibition amounted to 31%. “CACAGCGATGAGCCAGC (sugars e3 d10 e4, PS)”: the target mRNA inhibition (HepG2, 2.5 µM) was 50% and 31%. On to “AGAAGAGCAAAGGCTTGCTT (sugars e5 d10 e5, PS)”, for which the target mRNA inhibition (HepG2, 2.5 µM) was 74% and 72%; the target mRNA inhibition (HepG2, 10 µM) was 94% and 93%. Consider “GACAGGACCCACTGGAGCAC (sugars e5 d10 e5, PS)”, for which, for the setting “HepG2, 0.12 µM”, the target mRNA inhibition was 44% and 69%. Take “GCACTCTCTCTGCACACTCC (sugars e5 d10 e5, PS)”: the target mRNA inhibition runs as follows: (HepG2, 2.5 µM) 61%; (HepG2, 10 µM) 87%. Consider “TGACTGCATTCTTGCCAGGC (sugars e5 d10 e5, PS)”, for which the target mRNA inhibition is, setting by setting: (HepG2, 2.5 µM) 16%; (HepG2, 10 µM) 69%. In turn, “CCCACTGGAGCACTGAGATG (sugars e5 d10 e5, PS)” displayed a target mRNA inhibition (HepG2, 0.12 µM) of 78%. On to “CCTTCCAGGGAATAAAATAC (sugars e5 d10 e5, PS)”, for which, for the setting “HepG2, 0.12 µM”, the target mRNA inhibition is 3%. With “GGCACCTGTTACTACATGTC (sugars e5 d10 e5, PS)”, the target mRNA inhibition reads like this: (HepG2, 2.5 µM) 80% and 75%; (HepG2, 10 µM) 94% and 89%. For the sequence “GCAGGGTTACCCAGCCACTG (sugars e5 d10 e5, PS)”, the target mRNA inhibition (HepG2, 2.5 µM) is 85% and 67%; the target mRNA inhibition (HepG2, 10 µM) was 75% and 88%.

Sequence “CCACTCCCATTCTTTGAAAG (sugars e5 d10 e5, PS)” had a target mRNA inhibition (HepG2, 0.12 µM) of 34%. “AGCCTGCCACAGGGCCCTTT (sugars e5 d10 e5, PS)” yielded a target mRNA inhibition (HepG2, 0.12 µM) of 37%. “CCAACAGTGGTGATGGGCTT (sugars e5 d10 e5, PS)” had a target mRNA inhibition (HepG2, 0.12 µM) of 60%.

Take “CATAGGCCAGGAGGAAGAGT (sugars e5 d10 e5, PS)”: the target mRNA inhibition (HepG2, 0.12 µM) was determined as 35%.

Take “CATCAGGTACTCCCTCAACA (sugars e5 d10 e5, PS)”: the target mRNA inhibition (HepG2, 0.12 µM) was 35%. For the sequence “TGCGCGATTCACTGAGGACC (sugars e5 d10 e5, PS)”, the target mRNA inhibition turned out to be 51% (HepG2, 2.5 µM) and 87% (HepG2, 10 µM). For “CTCTGCTTCTTGGGCATCTG (sugars e5 d10 e5, PS)”, the target mRNA inhibition is 78% and 70% (HepG2, 2.5 µM); 90% and 85% (HepG2, 10 µM). “AGCTCAGAGACTCAGCCGCA (sugars e3 d14 e3, PS)” returned a target mRNA inhibition (HepG2, 0.12 µM) of 77%. Turning to “CAAGAGGTAAGGCCAAGGAA (sugars e5 d10 e5, PS)”, the target mRNA inhibition runs as follows: (HepG2, 2.5 µM) 75%; (HepG2, 10 µM) 90%.

“CCACAGCGATAATCACA (sugars e3 d10 e4, PS)”: the target mRNA inhibition (HepG2, 2.5 µM) is 63% and 60%; the target mRNA inhibition (HepG2, 10 µM) is 84% and 75%.

“GAGATGACCTGTAGCTGCTT (sugars e5 d10 e5, PS)” yielded a target mRNA inhibition (HepG2, 0.12 µM) of 34%. Same read-out and setting: the result for “CAGGCATGGAGCTCAGAGAC (sugars e3 d14 e3, PS)” reads 76%; that for “TGGGAACTTCTTGCTCACTT (sugars e5 d10 e5, PS)”, 43%. Take “GTGCAAGAGTTACCTCCTCC (sugars e5 d10 e5, PS)”: the target mRNA inhibition runs as follows: (HepG2, 2.5 µM) 80% and 78%; (HepG2, 10 µM) 94% and 92%. Consider “ACAATGGGAATGGTATCGCA (sugars e5 d10 e5, PS)”, for which the target mRNA inhibition runs as follows: (HepG2, 2.5 µM) 59%; (HepG2, 10 µM) 92%. Turning to “GCAGATCTTCATTACATGAT (sugars e5 d10 e5, PS)”, the target mRNA inhibition (HepG2, 10 µM) was 86% and 91%. Take “GTAGACTCTCCATGAGCCTA (sugars e5 d10 e5, PS)”: the target mRNA inhibition turned out to be 49% (HepG2, 2.5 µM) and 88% (HepG2, 10 µM). On to “GCCAGGTGCTCTCATTTCTT (sugars e5 d10 e5, PS)”, for which the target mRNA inhibition worked out at 63% (HepG2, 2.5 µM) and 91% (HepG2, 10 µM).

As for “GTGCAGAATATGTACATGAG (sugars e5 d10 e5, PS)”, the target mRNA inhibition (HepG2, 0.12 µM) is 43%. For the sequence “TGAGGCCAAGGACAGAGGTT (sugars e5 d10 e5, PS)”, the target mRNA inhibition (HepG2, 2.5 µM) stood at 59% and the target mRNA inhibition (HepG2, 10 µM) was 85%.

Regarding “TGGTCAGCAGGTTGTGTGTC (sugars e5 d10 e5, PS)”, the target mRNA inhibition is, setting by setting: (HepG2, 0.12 µM) 55% and 43%; (HepG2, 2.5 µM) 19%; (HepG2, 10 µM) 72%; (HepG2, 20 µM) 83%. “AGAAAAAGCAACCAAAGCAC (sugars e5 d10 e5, PS)”: the target mRNA inhibition runs as follows: (HepG2, 2.5 µM) 19%; (HepG2, 10 µM) 82%. The like results for “TACCTGCTATGCTGAGAGCA (sugars e5 d10 e5, PS)” were, in that order, 65% and 80%.

In the case of “CTTTGGATAGTCGATTTACC (sugars e5 d10 e5, PS)”, the target mRNA inhibition turned out to be 59% (HepG2, 2.5 µM) and 88% (HepG2, 10 µM). The sequence “AGTTTCGGACCCACTGTGAC (sugars e3 d14 e3, PS)” yielded a target mRNA inhibition (HepG2, 0.12 µM) of 60%. As to “TTTCCATTTTTTACCCAACC (sugars e5 d10 e5, PS)”, the target mRNA inhibition was 54% (HepG2, 2.5 µM) and 90% (HepG2, 10 µM).

On to “CCCATCATGACCAGGCCCTG (sugars e5 d10 e5, PS)”, for which the target mRNA inhibition by setting is: (HepG2, 2.5 µM) 31%; (HepG2, 10 µM) 77%.

With “GCACCTGTTACTACATGTCT (sugars e5 d10 e5, PS)”, the target mRNA inhibition was 87% and 78% (HepG2, 2.5 µM); 92% and 84% (HepG2, 10 µM). As to “GGTGCTCTCATTTCTTATCT (sugars e5 d10 e5, PS)”, the target mRNA inhibition was 56% and 59% (HepG2, 2.5 µM); 82% and 92% (HepG2, 10 µM).

“ACAGCTGTGATGACTTCCCA (sugars e5 d10 e5, PS)”: the target mRNA inhibition runs as follows: (HepG2, 2.5 µM) 88%; (HepG2, 10 µM) 77%.

Regarding “GATCTCAGTCACTGACTCAC (sugars e5 d10 e5, PS)”, the target mRNA inhibition (HepG2, 2.5 µM) is 57% and the target mRNA inhibition (HepG2, 10 µM) amounted to 91%.

Turning to “ATCCATGTCAGAGAGGCTCA (sugars e5 d10 e5, PS)”, the target mRNA inhibition (HepG2, 2.5 µM) came out at 66% and the target mRNA inhibition (HepG2, 10 µM) came to 88%. Turning to “TCAGAGACTCAGCCGCACCC (sugars e3 d14 e3, PS)”, the target mRNA inhibition (HepG2, 0.12 µM) was 41%. On the same count and under the same terms, the result for “GCCAGGTAAGGCCGTATGCC (sugars e3 d14 e3, PS)” reads 61%.

Turning to “GGGACTCAGTGTCCTCCTTA (sugars e5 d10 e5, PS)”, the target mRNA inhibition worked out at 69% (HepG2, 2.5 µM) and 78% (HepG2, 10 µM). For “ATATAGTTCCTGGTGGTCAG (sugars e5 d10 e5, PS)”, where the note is “HepG2, 0.12 µM”, the target mRNA inhibition worked out at 53%.

As to “GCCACTCCCAGTACAAGGAA (sugars e5 d10 e5, PS)”, the target mRNA inhibition (HepG2, 0.12 µM) turned out to be 0%. Still for that read-out and setting: under “CTGGACCCATCGGCCCCAGG (sugars e5 d10 e5, PS)” stands 41%; under “TCAGCAGGTTGTGTGTCTTC (sugars e3 d14 e3, PS)”, 54%. With “GCAGGTTCATCTGCCTT (sugars e3 d10 e4, PS)”, the target mRNA inhibition is, setting by setting: (HepG2, 2.5 µM) 54%; (HepG2, 10 µM) 82%. Take “ATGCCCTTGCTGTAGGACCC (sugars e5 d10 e5, PS)”: the target mRNA inhibition (HepG2, 2.5 µM) was 79% and 73%; the target mRNA inhibition (HepG2, 10 µM) amounted to 90%. The sequence “TGGTCAGCAGGTTGTGTGTC (sugars e2 d13 e5, PS)” returned a target mRNA inhibition (HepG2, 0.12 µM) of 57%.

For the sequence “GATGCTGGATCCAGTGCCTA (sugars e5 d10 e5, PS)”, under “HepG2, 0.12 µM”, the target mRNA inhibition was 53%. The same measure, in the same setting: under “AGGAGTTTGTGTTTCCCATT (sugars e5 d10 e5, PS)” stands 39%; under “CATCACATGCTTATCCTTGA (sugars e5 d10 e5, PS)”, 41%. Take “CCTTTGAAATCCAATGCACC (sugars e5 d10 e5, PS)”: the target mRNA inhibition is, setting by setting: (HepG2, 2.5 µM) 62%; (HepG2, 10 µM) 92%.
